Common to all, as to format: biochemical
Experiment [1] addresses T1, human topo IIα (Homo sapiens, UniProt P11388).
T1 construct: purchased Inspiralis (Norwich, UK)
Put plainly: HTS relaxation assay of human topo IIα. To be noted: screening at 7.8, 31.5, 125 and 500 µM. The method, then:
The 14 selected compounds from the class of substituted 4,5'-bithiazoles were experimentally assayed if they inhibit catalytic activity of human topo IIα using an established high-throughput screening (HTS) relaxation assay for human topo IIα [24].
The HTS assays primarily served to select compounds for further evaluation.
Plate was rehydrated using wash buffer (20 mM Tris-HCl (pH = 7.6), 137 mM NaCl, 0.005 % (w/v) BSA, 0.05 % (v/v) TWEEN-20®) and biotinylated oligonucleotide was immobilized onto the wells. Next, the excess oligonucleotide was washed off with wash buffer. Enzyme assay was carried out in reaction volume of 30 µL using 0.75 µg supercoiled plasmid pNO1 as a substrate and human topo IIα. Enzyme was diluted to the appropriate concentration with dilution buffer comprised of 50 mM Tris-Hcl (pH = 7.5), 100 mM NaCl, 1 mM DTT, 0.5 mM EDTA, 50 % (v/v) glycerol and 50 µg/mL albumin. Tested compounds (0.3 µL) were added as a stock solution in DMSO and final concentration of DMSO was 1 %, respectively. Reactions were incubated at 37 °C for 30 min, and TF buffer (50 mM NaOAc (pH = 5.0), 50 mM NaCl, 50 mM MgCl2) was added to the wells and incubated at room temperature for additional 30 min to allow the triplex biotin-oligonucleotid-plasmid formation. To eliminate the aggregation and non-specific inhibition a surfactant (TWEEN-20®) was added to the reaction mixture. Unbound plasmid was washed off with TF buffer and stained with the DNA-detection Dye in the T10 buffer (10 mM Tris-HCl (pH = 8) and 1 mM EDTA) was added. After mixing, fluorescence was read using Tecan fluorimeter (Excitation: 485 nm and Emission: 535 nm). Screening was performed at the inhibitor concentrations of 7.8, 31.5, 125 and 500 µM. IC50 values were calculated using GraphPad Prism 6.0 software and represent the concentrations of inhibitors where residual activity of the enzyme was 50 % [24].

Experiment [2] concerns the target T1, human topo IIα. The experiment is described as follows: kDNA decatenation assay catalysed by human topo IIα. The note with it: for % Decatenated Assay 1 / % Decatenated Assay 2: % of decatenated kDNA; for % Decatenated Average: average of two assays. On the procedure: One U of human topo II (α or β) was incubated with 200 ng kDNA in a 30 µL reaction at 37°C for 30 minutes under the following conditions: 50 mM Tris HCl (pH 7.5), 125 mM NaCl, 10 mM MgCl2, 5 mM DTT, 0.5 mM EDTA, 0.1 mg/ml bovine serum albumin (BSA) and 1 mM ATP. Compounds 1 and 9 were serially diluted in DMSO and added to the reaction mixture before the addition of the enzyme. […] Each reaction was then stopped by the addition of 30 µL chloroform/iso-amyl alcohol ([…]) and 30 µL Stop Dye (40 % sucrose (w/v), 100 mM Tris.HCl (pH 7.5), 10 mM EDTA, 0.5 µg/mL bromophenol blue), before being loaded on a 1% TAE gel run at 85 V for 90 minutes. Assays were performed at 4 concentrations of ligand: 3.9, 31.5, 125 and 500 µM. The final DMSO concentration in all reactions was 1 % (v/v).
Bands were visualized by the ethidium bromide staining for 15 minutes and destaining for subsequent 10 minutes. Gels were scanned using the documentation equipment (GeneGenius, Syngene, Cambridge, UK) and inhibition levels were calculated from band data obtained with gel scanning software (GeneTools, Syngene, Cambridge,UK). Experiment was performed in duplicates for all compounds.

The target in experiment [3] is T1, human topo IIα. Put plainly: ATP hydrolysis (ATPase) assay coupled to NADH oxidation. On the procedure: To investigate if our compounds can inhibit the ATP hydrolysis, catalysed by human topo IIα, first ATP hydrolysis assay was performed for compound 1. This assay is coupled to the oxidation of NADH, which was indicated by the decrease of optical density at 340 nm. Etoposide was used as a control compound.
Compounds were analyzed using a linked assay in which the ADP produced by the hydrolysis of ATP leads to conversion of NADH to NAD by a pyruvate kinase/lactate dehydrogenase mix. The disappearance of NADH is monitored at 340 nm. A mix of assay buffer (5 µL of 10X buffer per assay: final conc. 20 mM Tris-HCl, 5 mM magnesium acetate, 125 mM potassium acetate, 2 mM DTT, pH 7.9), linear pBR322 (1.5 µL of 1mg/mL per assay), phosphoenol pyruvate (0.5 µL of 80 mM per assay), pyruvate kinase/lactate dehydrogenase mix (0.75 µL per assay), NADH (1 µL of 20 mM per assay) and water (34.35 µL per assay) was made. 41.1 µL was aliquoted into the wells of a 384-well microtitre plate. […] 5 µL of the dilution buffer or human topo IIα (200 nM stock giving 12 nM final concentration) were then added and mixed. The change in OD340 was then measured in a plate reader over a period of about 10 minutes (called the prerun). 3.4 µL of 30 mM ATP was then added and the OD340 monitored for up to 30 minutes. Assays were performed at 37 °C. The final DMSO concentration in all the reactions was 1 % (v/v). Assays were performed at 3.9, 31.5, 125, and 500 µM final concentrations of the investigated compound 1. Compound were serially diluted in DMSO and added to the reaction before the addition of the enzyme. Control compound for was Etoposide. Determination if compound 1 from class of substituted 4,5'-bithiazoles inhibits ATPase activity of human topo II enzyme was performed in collaboration with Inspiralis.

T1 sequence (P11388 whole entry): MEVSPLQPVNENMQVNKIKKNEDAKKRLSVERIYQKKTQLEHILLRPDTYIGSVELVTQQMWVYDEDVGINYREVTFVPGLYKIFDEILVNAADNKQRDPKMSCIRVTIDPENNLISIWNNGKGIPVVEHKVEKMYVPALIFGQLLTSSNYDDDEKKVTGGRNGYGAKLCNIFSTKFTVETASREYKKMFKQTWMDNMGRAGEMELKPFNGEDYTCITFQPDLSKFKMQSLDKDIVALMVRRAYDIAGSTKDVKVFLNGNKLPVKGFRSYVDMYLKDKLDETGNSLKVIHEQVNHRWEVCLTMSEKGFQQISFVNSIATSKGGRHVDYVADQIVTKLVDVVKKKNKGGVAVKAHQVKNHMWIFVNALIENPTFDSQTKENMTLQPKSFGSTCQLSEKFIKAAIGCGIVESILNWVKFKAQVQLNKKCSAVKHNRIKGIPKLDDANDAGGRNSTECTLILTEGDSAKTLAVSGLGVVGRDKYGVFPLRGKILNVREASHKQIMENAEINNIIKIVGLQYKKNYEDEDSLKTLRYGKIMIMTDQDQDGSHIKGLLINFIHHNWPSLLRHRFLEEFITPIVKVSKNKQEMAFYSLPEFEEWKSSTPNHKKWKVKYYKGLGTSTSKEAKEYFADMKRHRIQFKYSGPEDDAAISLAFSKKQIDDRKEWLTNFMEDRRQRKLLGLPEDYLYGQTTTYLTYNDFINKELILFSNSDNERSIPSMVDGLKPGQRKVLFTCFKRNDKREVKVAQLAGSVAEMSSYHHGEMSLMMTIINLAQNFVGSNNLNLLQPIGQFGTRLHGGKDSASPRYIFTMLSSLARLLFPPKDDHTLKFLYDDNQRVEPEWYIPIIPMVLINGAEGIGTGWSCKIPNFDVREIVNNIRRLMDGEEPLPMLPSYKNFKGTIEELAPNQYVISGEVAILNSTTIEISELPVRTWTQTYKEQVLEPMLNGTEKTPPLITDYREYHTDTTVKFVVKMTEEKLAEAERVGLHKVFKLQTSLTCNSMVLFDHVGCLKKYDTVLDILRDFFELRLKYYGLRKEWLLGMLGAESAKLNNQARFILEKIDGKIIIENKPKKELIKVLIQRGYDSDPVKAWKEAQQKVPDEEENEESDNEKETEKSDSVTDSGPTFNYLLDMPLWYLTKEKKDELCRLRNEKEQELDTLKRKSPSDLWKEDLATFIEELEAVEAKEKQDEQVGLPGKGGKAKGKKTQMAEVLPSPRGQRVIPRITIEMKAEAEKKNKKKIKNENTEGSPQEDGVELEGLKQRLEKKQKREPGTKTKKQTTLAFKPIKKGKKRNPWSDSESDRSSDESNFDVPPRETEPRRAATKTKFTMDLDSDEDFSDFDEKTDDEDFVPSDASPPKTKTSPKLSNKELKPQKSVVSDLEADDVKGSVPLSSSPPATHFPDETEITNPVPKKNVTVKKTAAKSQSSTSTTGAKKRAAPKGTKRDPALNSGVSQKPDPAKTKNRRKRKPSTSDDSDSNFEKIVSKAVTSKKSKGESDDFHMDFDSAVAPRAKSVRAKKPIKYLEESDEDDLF

Compound `Cc1nc(N)sc1-c1csc(Nc2ccc(C(F)(F)F)cc2)n1` [Compound 1, 4'-methyl-N2-(4-(trifluoromethyl)phenyl)-[4,5'-bithiazole]-2,2'-diamine] had an IC50 against human topo IIα [1] of 33.4 µM. Also, at human topo IIα [2] (3.9 µM), the “% Decatenated Assay 1” value was 100%, the “% Decatenated Assay 2” value was found to be 91% and the “% Decatenated Average” value was determined as 95.5%. Also, on human topo IIα [2] (31.5 µM), the inhibition at 31.5 µM turned out to be 19.1%, the “% Decatenated Assay 1” value came to 72.4%, the “% Decatenated Assay 2” value is 89.4% and the “% Decatenated Average” value stood at 80.5%. On human topo IIα [2] (125 µM), the “% of inhibition of decatenation” value is “full inhibition”, the “% Decatenated Assay 1” value is 0%, the “% Decatenated Assay 2” value is recorded as 0% and the “% Decatenated Average” value amounted to 0%. Further, on human topo IIα [2] (500 µM), the “% of inhibition of decatenation” value is “full inhibition”, the “% Decatenated Assay 1” value was 0%, the “% Decatenated Assay 2” value turned out to be 0% and the “% Decatenated Average” value was 0%. This compound also came in with an inhibition at 125 µM at human topo IIα [3] (first parallel) of 75%. On human topo IIα [3] (second parallel), this compound showed an inhibition at 125 µM of 85%.
In the case of `CC(=O)Nc1ccc(Nc2nc(-c3sc(NC(C)=O)nc3C)cs2)cc1` [Compound 9, N-(4-((2'-acetamido-4'-methyl-[4,5'-bithiazol]-2-yl)amino)phenyl)acetamide], the IC50 at human topo IIα [1] amounted to 60 µM. For the same compound, at human topo IIα [2] (3.9 µM), the “% Decatenated Assay 1” value is 98.7%, the “% Decatenated Assay 2” value stood at 99.2% and the “% Decatenated Average” value is 98.9%. For the same compound, on human topo IIα [2] (31.5 µM), the “% Decatenated Assay 1” value came out at 99.4%, the “% Decatenated Assay 2” value is 97.9% and the “% Decatenated Average” value came out at 98.7%. Also, at human topo IIα [2] (125 µM), the inhibition at 125 µM was 11.9%, the “% Decatenated Assay 1” value is reported as 89.5%, the “% Decatenated Assay 2” value was found to be 86.7% and the “% Decatenated Average” value stood at 88.1%. For the same compound, on human topo IIα [2] (500 µM), the inhibition at 500 µM came to 67.3%, the “% Decatenated Assay 1” value was found to be 34%, the “% Decatenated Assay 2” value is recorded as 31.3% and the “% Decatenated Average” value turned out to be 32.7%.
For the compound `COc1cc([C@@H]2c3cc4c(cc3[C@@H](O[C@@H]3O[C@@H]5CO[C@@H](C)O[C@H]5[C@H](O)[C@H]3O)[C@H]3COC(=O)[C@H]23)OCO4)cc(OC)c1O` [Etoposide, etoposide, reference compound], the inhibition at 125 µM is 70% against human topo IIα [3] (first parallel) and 63% on human topo IIα [3] (second parallel).

As a reminder, the IC50 is the concentration at which inhibition is half-maximal. Read a low IC50 as greater potency in that assay. The term inhibition denotes the relative decrease from the control value, in per cent.

The record behind these values is patent EP3811940B1, “SUBSTITUTED 4,5'-BITHIAZOLES AS INHIBITORS OF THE HUMAN DNA TOPOISOMERASE II” (Kemijski Institut, priority 2019, dated 2021).
